Test results from article PMC11784200, “Insights into antibiotic resistance promoted by quinolone exposure” (Antimicrobial Agents and Chemotherapy, 2024).
Converted amounts (≈) assume the structure as drawn. Like-named read-outs stand apart in the source and are kept apart here.

Experiments:
[1] = test system: E. coli colonies that became resistant to CHL after CIP treatment; format: cell-based
E. coli marR mutant = assay: CHL MIC of marR mutant; format: cell-based; conditions: partial deletion of marR in WT E. coli
Experimental: (§1) Minimum inhibitory concentration (MIC) values were determined in triplicate as described ([55]). […] All compounds were purchased from Sigma.

E. coli MLS83L = assay: Broth-based MIC, MLS83L; format: cell-based; conditions: Escherichia coli
Experimental: as §1

MG1655 ∆recA = assay: Broth-based MIC, ∆recA; format: cell-based, E. coli; conditions: Escherichia coli
Experimental: as §1

MG1655 lexA(S119A) = assay: Broth-based MIC, lexA(S119A); format: cell-based, E. coli; conditions: Escherichia coli
Experimental: as §1

MG1655 ∆dinB = assay: Broth-based MIC, ∆dinB; format: cell-based, E. coli; conditions: Escherichia coli
Experimental: as §1

MG1655 ∆polB = assay: Broth-based MIC, ∆polB; format: cell-based, E. coli; conditions: Escherichia coli
Experimental: as §1

MG1655 ∆umuD = assay: Broth-based MIC, ∆umuD; format: cell-based, E. coli; conditions: Escherichia coli
Experimental: as §1

MG1655 ΔdinB ΔpolB ΔumuD = assay: Broth-based MIC, ΔdinB ΔpolB ΔumuD; format: cell-based, E. coli; conditions: Escherichia coli
Experimental: as §1

[2] = colony 1, plates with 2× MIC after 24 h on LB without selection
[3] = colony 2, plates with 2× MIC after 24 h on LB without selection
[4] = colony 3, plates with 2× MIC after 24 h on LB without selection
[5] = colony 4, plates with 2× MIC after 24 h on LB without selection
[6] = colony 5, plates with 2× MIC after 24 h on LB without selection
[7] = colony 6, plates with 2× MIC after 24 h on LB without selection
[8] = colony 7, plates with 2× MIC after 24 h on LB without selection
[9] = colony 8, plates with 2× MIC after 24 h on LB without selection
[10] = colony 9, plates with 2× MIC after 24 h on LB without selection
[11] = colony 10, plates with 2× MIC after 24 h on LB without selection
[12] = colony 11, plates with 2× MIC after 24 h on LB without selection
[13] = colony 12, plates with 2× MIC after 24 h on LB without selection
[14] = colony 13, plates with 2× MIC after 24 h on LB without selection
[15] = colony 14, plates with 2× MIC after 24 h on LB without selection
[16] = colony 15, plates with 2× MIC after 24 h on LB without selection
[17] = colony 16, plates with 2× MIC after 24 h on LB without selection
[18] = colony 17 (first line so numbered, r20), plates with 2× MIC after 24 h on LB without selection
[19] = colony 17 (second line so numbered, r21), plates with 2× MIC after 24 h on LB without selection
[20] = colony 19, plates with 2× MIC after 24 h on LB without selection
[21] = colony 20, plates with 2× MIC after 24 h on LB without selection
[22] = colony 21, plates with 2× MIC after 24 h on LB without selection
[23] = colony 22, plates with 2× MIC after 24 h on LB without selection
[24] = colony 23, plates with 2× MIC after 24 h on LB without selection
[25] = colony 24, plates with 2× MIC after 24 h on LB without selection
[26] = colony 25, plates with 2× MIC after 24 h on LB without selection
[27] = colony 26, plates with 2× MIC after 24 h on LB without selection
[28] = colony 27, plates with 2× MIC after 24 h on LB without selection

Row | Structure (SMILES) | Antibiotic resistance [1, 2] | Antibiotic resistance [1, 3] | Antibiotic resistance [1, 4] | Antibiotic resistance [1, 5] | Antibiotic resistance [1, 6] | Antibiotic resistance [1, 7] | Antibiotic resistance [1, 8] | Antibiotic resistance [1, 9] | Antibiotic resistance [1, 10] | Antibiotic resistance [1, 11] | Antibiotic resistance [1, 12] | Antibiotic resistance [1, 13] | Antibiotic resistance [1, 14] | Antibiotic resistance [1, 15] | Antibiotic resistance [1, 16] | Antibiotic resistance [1, 17] | Antibiotic resistance [1, 18] | Antibiotic resistance [1, 19] | Antibiotic resistance [1, 20] | Antibiotic resistance [1, 21] | other results
1 | CC1(C)S[C@@H]2[C@H](NC(=O)[C@H](N)c3ccccc3)C(=O)N2[C@H]1C(=O)O [AMP, ampicillin] | No | No | No | No | No | Yes | No | No | No | No | No | No | No | No | No | No | No | No | No | No | Antibiotic resistance [1, 22]: No; Antibiotic resistance [1, 23]: No; Antibiotic resistance [1, 24]: No; Antibiotic resistance [1, 25]: No; Antibiotic resistance [1, 26]: No; Antibiotic resistance [1, 27]: No; Antibiotic resistance [1, 28]: No
2 | O=C(N[C@H](CO)[C@H](O)c1ccc([N+](=O)[O-])cc1)C(Cl)Cl [CHL, chloramphenicol] | No | No | Yes | Yes | Yes | Yes | Yes | Yes | Yes | Yes | Yes | Yes | Yes | Yes | Yes | Yes | Yes | Yes | Yes | Yes | Antibiotic resistance [1, 22]: Yes; Antibiotic resistance [1, 23]: Yes; Antibiotic resistance [1, 24]: Yes; Antibiotic resistance [1, 25]: Yes; Antibiotic resistance [1, 26]: Yes; Antibiotic resistance [1, 27]: Yes; Antibiotic resistance [1, 28]: Yes; Colonies that retained resistance ([1]; of 27 CHL-resistant colonies from CIP treatment, cultured without selection): 25; Increase in the MIC compared to the WT strain (E. coli marR mutant): eightfold
3 | O=C(O)c1cn(C2CC2)c2cc(N3CCNCC3)c(F)cc2c1=O [CIP, ciprofloxacin] | – | – | – | – | – | – | – | – | – | – | – | – | – | – | – | – | – | – | – | – | MIC (E. coli MLS83L): 0.256 µg/mL (≈ 0.773 µM); MIC (MG1655 ∆recA): 0.006 µg/mL (≈ 0.0181 µM); MIC (MG1655 lexA(S119A)): 0.008 µg/mL (≈ 0.0241 µM); MIC (MG1655 ∆dinB): 0.032 µg/mL (≈ 0.0966 µM); MIC (MG1655 ∆polB): 0.032 µg/mL (≈ 0.0966 µM); MIC (MG1655 ∆umuD): 0.021 µg/mL (≈ 0.0634 µM); MIC (MG1655 ΔdinB ΔpolB ΔumuD): 0.032 µg/mL (≈ 0.0966 µM)
4 | NC[C@H]1O[C@H](O[C@H]2[C@H](O)[C@@H](O[C@H]3O[C@H](CO)[C@@H](O)[C@H](N)[C@H]3O)[C@H](N)C[C@@H]2N)[C@H](O)[C@@H](O)[C@@H]1O [KAN, kanamycin] | – | – | – | – | – | – | – | – | – | – | – | – | – | – | – | – | – | – | – | – | Antibiotic resistance [1]: No
5 | CO[C@H]1/C=C/O[C@@]2(C)Oc3c(C)c(O)c4c(O)c(c(/C=N/N5CCN(C)CC5)c(O)c4c3C2=O)NC(=O)/C(C)=C\C=C\[C@H](C)[C@H](O)[C@@H](C)[C@@H](O)[C@@H](C)[C@H](OC(C)=O)[C@@H]1C [RIF, rifampin] | – | – | – | – | – | – | – | – | – | – | – | – | – | – | – | – | – | – | – | – | Antibiotic resistance [1]: No
6 | [H]/N=C(/N)N[C@H]1[C@H](O)[C@@H](O)[C@H](O[C@@H]2O[C@@H](C)[C@](O)(C=O)[C@H]2O[C@@H]2O[C@@H](CO)[C@H](O)[C@@H](O)[C@@H]2NC)[C@@H](N/C(N)=N\[H])[C@@H]1O [STR, streptomycin] | No | No | No | Yes | No | No | No | No | No | No | No | No | No | No | No | No | No | No | No | No | Antibiotic resistance [1, 22]: No; Antibiotic resistance [1, 23]: No; Antibiotic resistance [1, 24]: No; Antibiotic resistance [1, 25]: No; Antibiotic resistance [1, 26]: No; Antibiotic resistance [1, 27]: No; Antibiotic resistance [1, 28]: No
7 | CN(C)[C@@H]1C(O)=C(C(N)=O)C(=O)[C@@]2(O)C(O)=C3C(=O)c4c(O)cccc4[C@@](C)(O)[C@H]3C[C@@H]12 [TET, tetracycline] | – | – | – | – | – | – | – | – | – | – | – | – | – | – | – | – | – | – | – | – | Antibiotic resistance [1]: No and Yes
8 | COc1cc(Cc2cnc(N)nc2N)cc(OC)c1OC [TMP, trimethoprim] | – | – | – | – | – | – | – | – | – | – | – | – | – | – | – | – | – | – | – | – | Antibiotic resistance [1]: No and Yes
9 | Oc1cc(Cl)ccc1Oc1ccc(Cl)cc1Cl [TRI, triclosan] | No | No | Yes | No | No | No | Yes | Yes | No | Yes | No | No | No | No | No | No | No | No | No | No | Antibiotic resistance [1, 22]: No; Antibiotic resistance [1, 23]: No; Antibiotic resistance [1, 24]: No; Antibiotic resistance [1, 25]: No; Antibiotic resistance [1, 26]: No; Antibiotic resistance [1, 27]: No; Antibiotic resistance [1, 28]: No
